Measured values published in paper PMC12281424, “A Rac-specific competitive inhibitor of guanine nucleotide binding reduces metastasis in triple-negative breast cancer” (Cell Reports Medicine, 2025).

Tests used:
[1] = molecular target: Lyn(m) (Mus musculus, UniProt P25911); experiment: Kinase Profiler; format: biochemical
Method: (§1) The kinase profiler was performed by the company Eurofins (Discovery, Panlab and Cerep).

[2] = molecular target: STK39(h) (Homo sapiens, UniProt Q9UEW8); experiment: Kinase Profiler; format: biochemical
Method: as §1

[3] = molecular target: MARK3(h) (Homo sapiens, UniProt P27448); experiment: Kinase Profiler; format: biochemical
Method: as §1

[4] = molecular target: Opiate δ1 (OP1, DOP) (Homo sapiens, UniProt P41143); experiment: Safety screen; format: binding
Method: (§2) Blood cell counts, kinase profiler, safety screen, bacterial cytotoxicity, Ames, micronucleus assays were performed by the company Eurofins (France).

[5] = molecular target: Mer(h) (Homo sapiens, UniProt Q12866); experiment: Kinase Profiler; format: biochemical
Method: as §1

[6] = molecular target: CDK5/p35(h) (Homo sapiens, UniProt Q00535); experiment: Kinase Profiler; format: biochemical
Sequence of CDK5/p35(h) (Q00535 whole entry): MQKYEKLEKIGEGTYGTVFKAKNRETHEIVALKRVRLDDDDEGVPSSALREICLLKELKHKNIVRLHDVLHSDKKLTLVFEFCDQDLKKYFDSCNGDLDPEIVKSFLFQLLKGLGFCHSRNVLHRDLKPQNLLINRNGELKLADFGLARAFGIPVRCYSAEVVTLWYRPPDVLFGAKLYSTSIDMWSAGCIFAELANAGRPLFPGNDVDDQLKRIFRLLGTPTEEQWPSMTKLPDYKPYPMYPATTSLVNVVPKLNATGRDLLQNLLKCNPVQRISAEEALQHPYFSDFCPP
Sequence of CDK5/p35(h) (Q15078 whole entry partner): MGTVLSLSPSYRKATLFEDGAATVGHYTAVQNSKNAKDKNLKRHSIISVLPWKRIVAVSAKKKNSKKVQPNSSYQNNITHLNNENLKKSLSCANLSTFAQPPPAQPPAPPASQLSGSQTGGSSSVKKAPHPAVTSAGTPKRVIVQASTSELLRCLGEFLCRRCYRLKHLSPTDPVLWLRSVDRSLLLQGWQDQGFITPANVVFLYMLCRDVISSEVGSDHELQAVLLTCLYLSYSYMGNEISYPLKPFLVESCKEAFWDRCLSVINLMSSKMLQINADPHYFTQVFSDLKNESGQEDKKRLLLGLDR
Method: (§3) Blood cell counts, kinase profiler, safety screen, bacterial cytotoxicity, Ames, micronucleus assays were performed by the company Eurofins (France). The kinase profiler was performed by the company Eurofins (Discovery, Panlab and Cerep).

[7] = molecular target: IRE1(h) (Homo sapiens, UniProt O75460); experiment: Kinase Profiler; format: biochemical
Sequence of IRE1(h) (O75460 19-977): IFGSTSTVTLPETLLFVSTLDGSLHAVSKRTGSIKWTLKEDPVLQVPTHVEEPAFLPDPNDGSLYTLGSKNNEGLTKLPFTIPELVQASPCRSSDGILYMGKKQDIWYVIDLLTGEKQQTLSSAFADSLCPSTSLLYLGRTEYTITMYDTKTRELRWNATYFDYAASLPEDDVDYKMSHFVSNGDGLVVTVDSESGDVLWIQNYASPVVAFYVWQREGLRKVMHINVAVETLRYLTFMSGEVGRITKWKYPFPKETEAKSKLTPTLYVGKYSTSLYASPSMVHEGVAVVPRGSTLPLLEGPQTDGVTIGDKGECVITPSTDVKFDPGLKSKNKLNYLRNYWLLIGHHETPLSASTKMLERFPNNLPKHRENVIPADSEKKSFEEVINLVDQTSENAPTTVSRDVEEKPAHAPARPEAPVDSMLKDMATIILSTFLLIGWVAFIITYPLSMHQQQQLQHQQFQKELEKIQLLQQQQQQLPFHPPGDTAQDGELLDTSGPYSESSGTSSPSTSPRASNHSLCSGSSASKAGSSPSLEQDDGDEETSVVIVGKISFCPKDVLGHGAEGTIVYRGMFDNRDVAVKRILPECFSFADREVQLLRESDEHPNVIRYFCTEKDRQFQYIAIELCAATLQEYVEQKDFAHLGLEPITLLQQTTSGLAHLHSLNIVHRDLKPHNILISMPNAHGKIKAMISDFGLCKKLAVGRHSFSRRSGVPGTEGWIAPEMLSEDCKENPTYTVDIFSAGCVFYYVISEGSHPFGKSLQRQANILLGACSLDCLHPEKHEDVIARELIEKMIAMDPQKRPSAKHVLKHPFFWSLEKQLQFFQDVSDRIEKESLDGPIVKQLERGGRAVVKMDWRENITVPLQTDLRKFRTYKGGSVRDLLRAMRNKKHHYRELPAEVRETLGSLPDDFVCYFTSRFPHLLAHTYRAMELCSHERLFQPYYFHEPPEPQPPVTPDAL
Method: as §3

[8] = molecular target: CDK7/cyclinH/MAT1(h) (Homo sapiens, UniProt P50613); experiment: Kinase Profiler; format: biochemical
Method: as §3

[9] = molecular target: PIP5K1a(h) (Homo sapiens, UniProt Q99755); experiment: Kinase Profiler; format: biochemical
Sequence of PIP5K1a(h) (Q99755 whole entry): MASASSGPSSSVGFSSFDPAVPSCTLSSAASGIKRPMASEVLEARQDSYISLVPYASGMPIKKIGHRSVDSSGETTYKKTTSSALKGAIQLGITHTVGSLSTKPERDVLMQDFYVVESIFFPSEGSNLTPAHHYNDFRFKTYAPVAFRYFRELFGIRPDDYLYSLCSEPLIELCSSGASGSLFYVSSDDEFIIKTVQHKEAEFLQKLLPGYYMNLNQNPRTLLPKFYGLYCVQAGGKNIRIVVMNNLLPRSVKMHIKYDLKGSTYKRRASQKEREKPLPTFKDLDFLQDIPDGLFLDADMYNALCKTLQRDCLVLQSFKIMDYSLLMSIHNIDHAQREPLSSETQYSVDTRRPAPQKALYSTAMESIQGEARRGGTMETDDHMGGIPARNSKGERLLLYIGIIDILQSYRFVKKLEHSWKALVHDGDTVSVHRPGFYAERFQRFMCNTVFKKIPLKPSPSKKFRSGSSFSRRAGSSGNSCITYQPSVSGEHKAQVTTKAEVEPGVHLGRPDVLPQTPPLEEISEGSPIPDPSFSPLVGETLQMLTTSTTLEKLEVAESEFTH
Method: as §1

[10] = molecular target: DYRK1B(h) (Homo sapiens, UniProt Q9Y463); experiment: Kinase Profiler; format: biochemical
Method: as §1

[11] = molecular target: PKA(h) (Homo sapiens, UniProt P17612); experiment: Kinase Profiler; format: biochemical
Method: as §3

[12] = molecular target: Arg(h) (Homo sapiens, UniProt P42684); experiment: Kinase Profiler; format: biochemical
Method: as §3

[13] = molecular target: CDK9/cyclin T1(h) (Homo sapiens, UniProt P50750); experiment: Kinase Profiler; format: biochemical
Method: as §3

[14] = system: Transporter, GABA; experiment: Safety screen; format: binding, rat
Method: as §2

[15] = molecular target: ErbB2(h) (Homo sapiens, UniProt P04626); experiment: Kinase Profiler; format: biochemical
Method: as §1

[16] = molecular target: ASK1(h) (Homo sapiens, UniProt Q99683); experiment: Kinase Profiler; format: biochemical
Sequence of ASK1(h) (Q99683 whole entry): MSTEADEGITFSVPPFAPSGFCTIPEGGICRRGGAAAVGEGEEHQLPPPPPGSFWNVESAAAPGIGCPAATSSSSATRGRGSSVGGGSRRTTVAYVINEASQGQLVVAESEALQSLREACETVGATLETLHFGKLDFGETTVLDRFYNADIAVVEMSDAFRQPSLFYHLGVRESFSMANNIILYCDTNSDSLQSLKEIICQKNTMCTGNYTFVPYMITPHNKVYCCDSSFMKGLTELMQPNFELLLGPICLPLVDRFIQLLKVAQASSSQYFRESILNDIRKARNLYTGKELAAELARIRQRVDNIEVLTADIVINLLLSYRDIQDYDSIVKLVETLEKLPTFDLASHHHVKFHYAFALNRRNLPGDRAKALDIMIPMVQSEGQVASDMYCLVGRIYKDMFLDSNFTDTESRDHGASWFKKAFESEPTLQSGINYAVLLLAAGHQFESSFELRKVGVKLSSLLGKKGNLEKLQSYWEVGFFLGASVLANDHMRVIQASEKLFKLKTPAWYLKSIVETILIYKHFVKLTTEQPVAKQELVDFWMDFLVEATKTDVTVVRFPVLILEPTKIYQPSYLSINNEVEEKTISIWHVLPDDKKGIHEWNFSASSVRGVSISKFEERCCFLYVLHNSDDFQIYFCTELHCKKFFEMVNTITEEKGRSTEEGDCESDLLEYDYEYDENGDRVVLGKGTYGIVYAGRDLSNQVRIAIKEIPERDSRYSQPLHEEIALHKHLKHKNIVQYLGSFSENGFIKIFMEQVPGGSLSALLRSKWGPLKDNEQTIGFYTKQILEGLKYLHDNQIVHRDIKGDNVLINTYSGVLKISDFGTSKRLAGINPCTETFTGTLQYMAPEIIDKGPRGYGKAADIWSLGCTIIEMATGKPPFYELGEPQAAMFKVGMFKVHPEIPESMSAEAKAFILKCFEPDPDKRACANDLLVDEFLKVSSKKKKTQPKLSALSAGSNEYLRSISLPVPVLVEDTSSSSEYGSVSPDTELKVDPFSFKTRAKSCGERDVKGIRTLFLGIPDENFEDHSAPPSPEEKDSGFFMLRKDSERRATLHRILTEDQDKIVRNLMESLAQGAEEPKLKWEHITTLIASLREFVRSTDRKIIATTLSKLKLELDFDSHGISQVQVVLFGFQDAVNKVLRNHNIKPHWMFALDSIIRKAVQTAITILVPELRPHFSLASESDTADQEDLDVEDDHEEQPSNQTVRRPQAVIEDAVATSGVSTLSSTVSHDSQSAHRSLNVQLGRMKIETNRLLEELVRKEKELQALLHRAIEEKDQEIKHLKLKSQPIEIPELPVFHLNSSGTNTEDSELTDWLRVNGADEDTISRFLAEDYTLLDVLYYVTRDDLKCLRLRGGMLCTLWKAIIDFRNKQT
Method: as §3

[17] = molecular target: Cdc7/cyclinB1(h) (Homo sapiens, UniProt O00311); experiment: Kinase Profiler; format: biochemical
Method: as §1

[18] = molecular target: Tachykinin NK1 (Homo sapiens, UniProt P25103); experiment: Safety screen; format: binding
Method: as §2

[19] = molecular target: ALK6(h) (Homo sapiens, UniProt O00238); experiment: Kinase Profiler; format: biochemical
Method: as §1

[20] = molecular target: MSK2(h) (Homo sapiens, UniProt O75676); experiment: Kinase Profiler; format: biochemical
Method: as §3

[21] = molecular target: NEK6(h) (Homo sapiens, UniProt Q9HC98); experiment: Kinase Profiler; format: biochemical
Sequence of NEK6(h) (Q9HC98 whole entry): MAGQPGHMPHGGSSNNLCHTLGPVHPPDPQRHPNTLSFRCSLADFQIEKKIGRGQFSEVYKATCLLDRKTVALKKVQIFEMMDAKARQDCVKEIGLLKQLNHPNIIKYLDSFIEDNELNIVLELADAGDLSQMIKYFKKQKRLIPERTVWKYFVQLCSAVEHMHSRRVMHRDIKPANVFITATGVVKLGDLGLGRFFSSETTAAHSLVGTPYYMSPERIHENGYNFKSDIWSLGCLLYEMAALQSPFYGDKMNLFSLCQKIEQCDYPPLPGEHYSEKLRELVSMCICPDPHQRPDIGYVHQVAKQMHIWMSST
Method: as §1

[22] = molecular target: DDR2(h) (Homo sapiens, UniProt Q16832); experiment: Kinase Profiler; format: biochemical
Sequence of DDR2(h) (Q16832 22-855): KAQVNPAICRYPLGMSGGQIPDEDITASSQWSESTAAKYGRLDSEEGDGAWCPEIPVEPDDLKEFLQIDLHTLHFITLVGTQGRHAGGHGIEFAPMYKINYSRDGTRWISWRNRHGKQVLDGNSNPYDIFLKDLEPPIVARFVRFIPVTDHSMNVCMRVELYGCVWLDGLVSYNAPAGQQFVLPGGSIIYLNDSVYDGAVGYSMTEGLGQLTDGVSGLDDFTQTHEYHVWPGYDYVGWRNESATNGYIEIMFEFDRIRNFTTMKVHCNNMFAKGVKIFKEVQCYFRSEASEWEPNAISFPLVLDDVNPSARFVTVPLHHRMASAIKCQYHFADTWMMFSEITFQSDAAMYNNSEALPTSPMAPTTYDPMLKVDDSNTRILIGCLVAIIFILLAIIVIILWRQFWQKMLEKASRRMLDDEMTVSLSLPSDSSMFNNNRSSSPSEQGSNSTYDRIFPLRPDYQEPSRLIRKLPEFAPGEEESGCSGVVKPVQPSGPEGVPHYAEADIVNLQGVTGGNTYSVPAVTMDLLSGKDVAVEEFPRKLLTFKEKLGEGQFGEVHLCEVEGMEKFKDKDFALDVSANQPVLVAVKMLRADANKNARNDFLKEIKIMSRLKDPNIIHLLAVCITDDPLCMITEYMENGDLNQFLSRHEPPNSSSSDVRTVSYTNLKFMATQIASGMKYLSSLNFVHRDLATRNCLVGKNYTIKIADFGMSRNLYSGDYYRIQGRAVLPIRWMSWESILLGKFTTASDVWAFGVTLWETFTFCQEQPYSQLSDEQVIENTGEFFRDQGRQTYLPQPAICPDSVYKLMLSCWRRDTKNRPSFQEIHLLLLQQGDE
Method: as §3

[23] = molecular target: DAPK2(h) (Homo sapiens, UniProt Q9UIK4); experiment: Kinase Profiler; format: biochemical
Method: as §3

[24] = molecular target: CDC42 (Homo sapiens, UniProt P60953); experiment: Surface plasmon resonance; format: binding; parameters: purchased Cytoskeleton CD01; conditions: A41 0 to 25 μM
Sequence of CDC42 (P60953 whole entry): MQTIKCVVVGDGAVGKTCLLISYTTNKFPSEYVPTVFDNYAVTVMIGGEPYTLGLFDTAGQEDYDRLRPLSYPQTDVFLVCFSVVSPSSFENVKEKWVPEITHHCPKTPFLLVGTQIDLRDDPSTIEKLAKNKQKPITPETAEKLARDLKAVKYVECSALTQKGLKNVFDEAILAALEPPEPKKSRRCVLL
Method: SPR immobilization was performed at 25°C. RAC1, RHOA and CDC42 purified proteins (respectively […] and CD01, Cytoskeleton) were diluted to 5 μg/mL in Na^+ acetate buffer (pH 5.0) and injected into sensor chip CM5 (GE Healthcare) in a Biacore T200 (GE Healthcare) that was activated with NHS/EDC buffer. Approximately 5,000 response units of the purified protein were immobilized on the biosensor chip. Biosensor chips were blocked by an injection of 1 mM ethanolamine (pH 8.5). SPR analysis was performed at 25°C in HBSEP running buffer (5% DMSO) with or without EDTA (20 mM). A41 compound was injected over the RAC1, RHOA or CDC42 functionalized surface in concentration range from 0 to 25μM. Association and dissociation phases were monitored during 60s and 300s, respectively.

[25] = molecular target: PRAK(h) (Homo sapiens, UniProt Q8IW41); experiment: Kinase Profiler; format: biochemical
Method: as §3

[26] = molecular target: A-Raf(h) (Homo sapiens, UniProt P10398); experiment: Kinase Profiler; format: biochemical
Method: as §3

[27] = molecular target: CDK3/cyclinE(h) (Homo sapiens, UniProt Q00526); experiment: Kinase Profiler; format: biochemical
Method: as §3

[28] = molecular target: DDR1(h) (Homo sapiens, UniProt Q08345); experiment: Kinase Profiler; format: biochemical
Method: as §3

[29] = molecular target: Fms(h) (Homo sapiens, UniProt P07333); experiment: Kinase Profiler; format: biochemical
Method: as §1

[30] = molecular target: cKit(h) (Homo sapiens, UniProt P10721); experiment: Kinase Profiler; format: biochemical
Method: as §3

[31] = molecular target: MST2(h) (Homo sapiens, UniProt Q13188); experiment: Kinase Profiler; format: biochemical
Method: as §3

[32] = molecular target: Fer(h) (Homo sapiens, UniProt P16591); experiment: Kinase Profiler; format: biochemical
Method: as §1

[33] = molecular target: Leukotriene, Cysteinyl CysLT1 (Homo sapiens, UniProt Q9Y271); experiment: Safety screen; format: binding
Method: as §2

[34] = molecular target: MKK3(h) (Homo sapiens, UniProt P46734); experiment: Kinase Profiler; format: biochemical
Method: as §1

[35] = molecular target: PI3K (p110b/p85b)(m) (Mus musculus, UniProt Q8BTI9); experiment: Kinase Profiler; format: biochemical
Method: as §3

[36] = molecular target: Abl(T315I)(h) (Homo sapiens, UniProt P00519, T315I); experiment: Kinase Profiler; format: biochemical
Method: as §1

COc1ccc(OC)c(NS(=O)(=O)c2ccc(NC(=O)CCSc3ccc(C)cc3)cc2)c1 [Compound A41]
Activity(%) [1]: 110%
Activity(%) [2]: 91%
Activity(%) [3]: 98%
% inh. [4]: 6%
Activity(%) [5]: 90%
Activity(%) [6]: 99%
Activity(%) [7]: 101%
Activity(%) [8]: 106%
Activity(%) [9]: 100%
Activity(%) [10]: 96%
Activity(%) [11]: 84%
Activity(%) [12]: 122%
Activity(%) [13]: 92%
% inh. [14]: -4%
Activity(%) [15]: 116%
Activity(%) [16]: 94%
Activity(%) [17]: 92%
% inh. [18]: 41%
Activity(%) [19]: 104%
Activity(%) [20]: 105%
Activity(%) [21]: 109%
Activity(%) [22]: 114%
Activity(%) [23]: 99%
binding [24]: No binding was measured
Activity(%) [25]: 88%
Activity(%) [26]: 85%
Activity(%) [27]: 77%
Activity(%) [28]: 116%
Activity(%) [29]: 112%
Activity(%) [30]: 101%
Activity(%) [31]: 88%
Activity(%) [32]: 114%
% inh. [33]: 14%
Activity(%) [34]: 117%
Activity(%) [35]: 100%
Activity(%) [36]: 117%
